Data published in US20220144848A1, “SUBSTITUTED OXOPYRIDINE DERIVATIVES” (Bayer Aktiengesellschaft, priority 2018, published 2022).
pIC50: −log10 of the molar value.

Legend:
human factor XIa = biological target: T1, human factor XIa (Homo sapiens, UniProt P03951); test: Measurement of FXIa inhibition (fluorogenic peptide substrate Boc-Glu(OBzl)-Ala-Arg-AMC); type: biochemical; conditions: factor XIa from Kordia, 15 min preincubation, 30 min at 22° C., fluorescence; some as mean values from multiple determinations
T1 construct: purchased Kordia

human plasma kallikrein = biological target: T2, human plasma kallikrein (Homo sapiens, UniProt P03952); test: Determination of the plasma kallikrein activity (fluorogenic peptide substrate H-Pro-Phe-Arg-AMC); type: biochemical; conditions: plasma kallikrein from Kordia, 15 min preincubation, 30 min at 22° C., fluorescence; some as mean values from multiple determinations
T2 construct: purchased Kordia
T2 sequence (P03952 391-638 limits assumed): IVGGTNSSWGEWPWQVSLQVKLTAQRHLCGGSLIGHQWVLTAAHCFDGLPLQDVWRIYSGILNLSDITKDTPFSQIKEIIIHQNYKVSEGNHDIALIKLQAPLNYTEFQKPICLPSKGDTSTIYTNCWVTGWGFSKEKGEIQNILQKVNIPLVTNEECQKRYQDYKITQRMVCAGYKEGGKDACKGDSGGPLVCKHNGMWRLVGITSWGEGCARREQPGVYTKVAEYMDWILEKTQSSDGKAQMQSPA
T2 sequence (P03952 20-390 partner limits assumed): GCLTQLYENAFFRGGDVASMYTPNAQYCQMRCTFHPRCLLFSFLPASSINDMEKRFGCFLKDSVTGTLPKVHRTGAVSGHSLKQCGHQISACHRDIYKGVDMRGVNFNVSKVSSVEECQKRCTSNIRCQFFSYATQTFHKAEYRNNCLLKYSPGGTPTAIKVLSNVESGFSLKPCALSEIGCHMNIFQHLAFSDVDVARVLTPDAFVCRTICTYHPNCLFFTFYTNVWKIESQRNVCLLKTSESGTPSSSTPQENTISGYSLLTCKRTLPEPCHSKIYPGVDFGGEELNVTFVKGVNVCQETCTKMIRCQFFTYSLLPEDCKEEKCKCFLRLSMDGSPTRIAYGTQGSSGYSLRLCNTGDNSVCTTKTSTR

T1 sequence (P03951 388-625 limits assumed): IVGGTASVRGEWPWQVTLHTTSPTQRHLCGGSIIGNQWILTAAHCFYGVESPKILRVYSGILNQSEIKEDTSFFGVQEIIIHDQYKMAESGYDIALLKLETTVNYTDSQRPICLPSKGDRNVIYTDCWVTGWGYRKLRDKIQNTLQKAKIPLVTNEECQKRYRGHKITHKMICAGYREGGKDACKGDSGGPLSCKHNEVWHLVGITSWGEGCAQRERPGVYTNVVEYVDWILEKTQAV
T1 sequence (P03951 19-387 partner limits assumed): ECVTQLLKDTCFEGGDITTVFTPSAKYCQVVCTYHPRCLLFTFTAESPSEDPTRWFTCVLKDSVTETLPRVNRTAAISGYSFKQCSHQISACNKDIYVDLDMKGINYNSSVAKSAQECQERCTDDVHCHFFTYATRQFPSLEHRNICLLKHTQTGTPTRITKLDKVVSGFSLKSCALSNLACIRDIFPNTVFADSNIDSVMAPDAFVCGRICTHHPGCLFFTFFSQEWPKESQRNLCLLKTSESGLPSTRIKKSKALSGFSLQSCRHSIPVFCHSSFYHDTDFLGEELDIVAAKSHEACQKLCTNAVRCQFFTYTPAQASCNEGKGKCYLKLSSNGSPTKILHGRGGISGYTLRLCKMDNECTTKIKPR

For `CO[C@@H](C)C[C@@H](C(=O)Nc1ccc(C(N)=O)cc1)n1cc2c(cc1=O)-c1c(ccc(Cl)c1F)C[C@@H](C(F)(F)F)OC2` (single isomer, unassigned) [Example 78], the pIC50 (human factor XIa) was 8.82 and the pIC50 (human plasma kallikrein) was 7.13.

With `CO[C@@H](C)C[C@@H](C(=O)Nc1ccc(C(N)=O)cc1)n1cc2c(cc1=O)-c1c(ccc(Cl)c1F)C[C@@H](C)O[C@H]2C` (single isomer, unassigned) [Example 79] the pIC50 (human factor XIa) was 7.59 and the pIC50 (human plasma kallikrein) was 6.60.

For `CO[C@@H](C)C[C@@H](C(=O)Nc1ccc(C(N)=O)cc1)n1cc2c(cc1=O)-c1c(ccc(Cl)c1Cl)C[C@@H](C(F)(F)F)OC2` (single isomer, unassigned) [Example 80], the pIC50 (human factor XIa) was 8.02 and the pIC50 (human plasma kallikrein) was 6.55.
